Laboratory results taken from article PMC8151276, “An Integrated Approach toward NanoBRET Tracers for Analysis of GPCR Ligand Engagement” (Molecules, 2021).

Experiments:
Format in all cases: binding
[1] = biological target: T1, CXCR5 (Homo sapiens, UniProt P32302); assay: NanoBRET screen HiBiT-CXCR5 in HEK293; conditions: CXCR5
T1 construct: purchased Promega (in-house HiBiT-GPCR construct library, NanoBRET)
T1 sequence (P32302 1-372): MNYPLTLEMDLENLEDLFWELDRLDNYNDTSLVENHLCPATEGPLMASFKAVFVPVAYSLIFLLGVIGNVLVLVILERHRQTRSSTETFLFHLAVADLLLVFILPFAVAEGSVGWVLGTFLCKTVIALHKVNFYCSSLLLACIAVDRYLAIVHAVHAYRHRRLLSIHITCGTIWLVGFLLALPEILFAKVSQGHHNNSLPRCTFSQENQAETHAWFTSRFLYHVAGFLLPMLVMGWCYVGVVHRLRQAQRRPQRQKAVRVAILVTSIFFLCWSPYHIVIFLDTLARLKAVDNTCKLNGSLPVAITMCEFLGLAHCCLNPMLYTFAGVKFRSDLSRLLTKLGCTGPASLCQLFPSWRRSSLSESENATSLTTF
Description: (§1) Each tracer candidate was screened across the entire library of HiBiT-GPCR constructs using NanoBRET as the detection modality. As depicted in Figure 4A, the specificity of interactions was evaluated through decrease in BRET due to competitive displacement of a bound tracer by excess parental compound. Each tracer was analyzed for binding to each HiBiT-GPCR fusion in the absence and in the presence of competing parental compound. Briefly, HEK293 cells were transfected with HiBiT-GPCR constructs diluted into promoterless DNA to reduce expression and maximize translocation to the cell surface. Each tracer candidate was then screened at concentrations of 1 μM and 0.1 μM across cells expressing these fusions. Cells were treated for 1.5 h with tracer either alone or in the presence of 20 μM competing parental compound (i.e., control). BRET was measured upon addition of purified LgBiT and subsequent complementation with HiBiT genetically fused to a GPCR. The specificity of interactions was assessed through a decrease in BRET signal due to competitive displacement of the bound tracer. To further gauge the robustness of these interactions, the fold response over the control (i.e., BRETtracer/BRETcontrol) was calculated. We chose a 1.5-fold response, which translates to ≥7-fold signal over noise as the minimal threshold required to score an interaction as positive. […]. Below we highlight the screening results obtained for our exemplary fluorescent tracers based on Clozapine, Amitriptyline and AZD1283.
(§2) HiBiT-GPCR DNA constructs were diluted in 10 mM Tris pH 8 to a final concentration of 0.01 μg/μL, arrayed in 96-well plates and stored at −20 °C. For transfection, HEK293 cells were suspended in Opti-MEM (without phenol red) supplemented with 2% fetal bovine serum (Seradigm) and 100 units/mL penicillin–streptomycin (Gibco) at a final concentration of 220,000 cells/mL and dispensed into white 96-well plates at 90 μL/well. Subsequent transfections and screens were carried using an Agilent Bravo Automated Liquid Handling Platform. First, the 96-well HiBiT DNA arrays were diluted 25-fold in Opti-MEM (without serum or phenol red) to a final concentration of 0.0004 μg/μL and 20 μL of the diluted DNAs were transferred into new 96-well plates. Next, promoterless carrier DNA (1 μg/μL) was diluted 25-fold (0.04 μg/μL) and then dispensed into the diluted arrays at 20 μL/well. Following brief mixing, Viafect transfection reagent (Promega) diluted 16-fold into Opti-MEM was dispensed into the plates at 40 μL/well. After mixing by pipetting, plates were incubated for 10 min on the pipetting station deck. The DNA-transfection reagent complexes were then added to plates containing cells. To facilitate the screen, 10 μL of DNA-transfection reagent complexes were added in duplicates to the top 4 and bottom 4 rows, resulting in two identical 48-well arrays per plate. Plates with transfected cells were incubated for 18–20 h at 37 °C/5% CO2. A screen of each tracer across the entire library using two different concentrations requires duplicate plates of transfected cells. Depending on the number of tracers being screened, transfections can be scaled up using the same ratios. The next day, for each tracer, four 20× screening solutions in tracer dilution buffer (Promega) were prepared: two duplicates at final concentration of 20 μM and two duplicates at a final concentration of 2 μM. A competing unmodified compound was added to one of each duplicate at a final concentration of 400 μM. The four resulting solutions were diluted 4-fold in Opti-MEM without serum or phenol red to generate 5× solutions (5 µM and 0.5 µM tracer +/− 100 μM competing compound). To screen the library, a BioTek MultiFlo FX liquid dispenser was used to dispense 22.5 µL of tracer solution to the top 4 rows and 22.5 µL tracer + competing compound solution to the 4 bottom rows. Plates were briefly mixed on an orbital shaker and incubated for 1.5 h at room temperature. […]

[2] = biological target: T2, P2RY4 (Homo sapiens, UniProt P51582); assay: NanoBRET screen HiBiT-P2RY4 in HEK293; conditions: P2RY4
T2 construct: purchased Promega (in-house HiBiT-GPCR construct library, NanoBRET)
Description: as §1, §2

[3] = biological target: T3, NMUR2 (Homo sapiens, UniProt Q9GZQ4); assay: NanoBRET screen HiBiT-NMUR2 in HEK293; conditions: NMUR2
T3 construct: purchased Promega (in-house HiBiT-GPCR construct library, NanoBRET)
Description: as §1, §2

T2 sequence (P51582 whole entry): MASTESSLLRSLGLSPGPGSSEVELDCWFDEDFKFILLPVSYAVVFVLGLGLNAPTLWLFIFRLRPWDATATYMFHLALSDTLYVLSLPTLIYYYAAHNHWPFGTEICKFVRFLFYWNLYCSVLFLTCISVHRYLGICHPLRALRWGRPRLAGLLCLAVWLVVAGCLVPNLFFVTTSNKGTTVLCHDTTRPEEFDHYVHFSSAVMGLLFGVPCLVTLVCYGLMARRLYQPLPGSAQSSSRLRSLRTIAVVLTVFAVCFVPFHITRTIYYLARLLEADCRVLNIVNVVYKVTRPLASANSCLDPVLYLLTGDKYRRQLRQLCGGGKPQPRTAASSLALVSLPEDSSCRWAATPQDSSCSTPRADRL
T3 sequence (Q9GZQ4 whole entry): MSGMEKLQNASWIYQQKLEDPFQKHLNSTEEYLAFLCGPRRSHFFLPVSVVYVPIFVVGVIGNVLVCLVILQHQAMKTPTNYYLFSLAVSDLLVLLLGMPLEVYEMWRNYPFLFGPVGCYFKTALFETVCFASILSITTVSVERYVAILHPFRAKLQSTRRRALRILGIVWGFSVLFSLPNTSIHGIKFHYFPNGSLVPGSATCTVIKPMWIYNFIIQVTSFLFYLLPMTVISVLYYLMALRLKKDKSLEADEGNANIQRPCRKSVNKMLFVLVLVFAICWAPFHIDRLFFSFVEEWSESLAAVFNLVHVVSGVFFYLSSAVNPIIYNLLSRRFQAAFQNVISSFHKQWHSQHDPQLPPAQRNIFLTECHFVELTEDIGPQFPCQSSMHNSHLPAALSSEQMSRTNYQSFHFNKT

Structure (SMILES) | NanoBRET Fold Response ([1]; tracer 0.1μM) | NanoBRET Fold Response ([1]; tracer 1μM) | NanoBRET Fold Response ([2]; tracer 0.1μM) | NanoBRET Fold Response ([2]; tracer 1μM) | NanoBRET Fold Response ([3]; tracer 0.1μM) | NanoBRET Fold Response ([3]; tracer 1μM) | other results
CN1CCN(C2=Nc3cc(Cl)ccc3Nc3ccc(CNC(=O)CCOCCOCCOCCOCCNC(=O)CCc4ccc5n4[B-](F)(F)[N+]4=C(c6ccc[nH]6)C=CC4=C5)cc32)CC1 [Clozapine-b-2-NB590] |  |  |  |  |  |  | NanoBRET Fold Response ([1]; 0.1μM tracer): 0.95; NanoBRET Fold Response ([1]; 1μM tracer): 1.02; NanoBRET Fold Response ([2]; 0.1μM tracer): 0.97; NanoBRET Fold Response ([2]; 1μM tracer): 0.97; NanoBRET Fold Response ([3]; 0.1μM tracer): 0.97; NanoBRET Fold Response ([3]; 1μM tracer): 1.00
CN1CCN(C2=Nc3cc(Cl)ccc3N(CC(=O)NCCOCCOCCOCCOCCNC(=O)CCc3ccc4n3[B-](F)(F)[N+]3=C(c5ccc[nH]5)C=CC3=C4)c3ccccc32)CC1 [Clozapine-c-2-NB590] |  |  |  |  |  |  | NanoBRET Fold Response ([1]; 0.1μM tracer): 0.98; NanoBRET Fold Response ([1]; 1μM tracer): 0.98; NanoBRET Fold Response ([2]; 0.1μM tracer): 1.00; NanoBRET Fold Response ([2]; 1μM tracer): 0.95; NanoBRET Fold Response ([3]; 0.1μM tracer): 1.12; NanoBRET Fold Response ([3]; 1μM tracer): 0.92
O=C(CCOCCOCCOCCOCCNC(=O)CCc1ccc2n1[B-](F)(F)[N+]1=C(c3ccc[nH]3)C=CC1=C2)NCCCN1CCN(C2=Nc3ccccc3Oc3ccc(Cl)cc32)CC1 [Loxapine-a-2-NB590] | 0.29 | 0.90 | 0.95 | 1.28 | 1.07 | 0.74 | 
COc1ccccc1N1CCN(CCCCN2C(=O)c3ccc(CNC(=O)CCOCCOCCOCCOCCNC(=O)CCc4ccc5n4[B-](F)(F)[N+]4=C(c6ccc[nH]6)C=CC4=C5)cc3C2=O)CC1 [NAN-190-2-NB590] | 1.01 | 1.00 |  | 1.18 |  |  | 
COc1ccccc1N1CCN(CCCCN2C(=O)c3ccc(CNC(=O)CCOCCNC(=O)c4ccc(CNC(=O)CCc5ccc6n5[B-](F)(F)[N+]5=C(c7ccc[nH]7)C=CC5=C6)cc4)cc3C2=O)CC1 [NAN-190-3-NB590] | 1.37 | 0.68 | 0.86 | 0.82 | 1.04 | 0.75 | 
O=C(CCc1ccc2n1[B-](F)(F)[N+]1=C(c3ccc[nH]3)C=CC1=C2)NCc1ccc(C(=O)NCCOCCC(=O)N[C@@H]2CC[C@@]3(O)[C@H]4Cc5ccc(O)c6c5[C@@]3(CCN4CC3CC3)[C@H]2O6)cc1 [Naltrexone-3-NB590] | 0.57 | 0.57 | 1.32 | 0.88 | 0.78 | 0.84 | 
Cc1cc2c(s1)Nc1ccccc1N=C2N1CCN(CCCNC(=O)CCOCCOCCOCCOCCNC(=O)CCc2ccc3n2[B-](F)(F)[N+]2=C(c4ccc[nH]4)C=CC2=C3)CC1 [Olanzapine-a-2-NB590] | 0.98 | 0.86 | 1.07 | 0.95 | 0.94 | 0.98 | 
O=C(CCc1ccc2n1[B-](F)(F)[N+]1=C(c3ccc[nH]3)C=CC1=C2)NCc1ccc(C(=O)NCCOCCOCCNCC(O)COc2cccc3ccccc23)cc1 (stereo not drawn) [Propranolol-3-NB590] |  |  |  |  |  |  | NanoBRET Fold Response ([1]; 0.1μM): 1.02; NanoBRET Fold Response ([1]; 1μM): 1.06; NanoBRET Fold Response ([2]; 0.1μM): 1.03; NanoBRET Fold Response ([2]; 1μM): 0.92; NanoBRET Fold Response ([3]; 0.1μM): 1.06; NanoBRET Fold Response ([3]; 1μM): 1.08
